The source of these data is patent US9643999B2 (Bristol-Myers Squibb Company, priority 2012, dated 2017).

Like-named read-outs stand apart in the source and are kept apart here.

One may read the EC50 as the concentration needed to bring the measured effect to its halfway point.

For one assay, the system named is HCV genotype 1b replicon. The assay can be described thus: HCV replicon luciferase reporter assay, genotype 1b (LE_1b). The note with it: Hepatitis C virus, 72 h, HUH-7 cells, genotype 1b (Con1) replicon, 3 days incubation, Renilla luciferase. In kind it is cell-based. From the text: An HCV replicon whole cell system was established as described by Lohmann V, Korner F, Koch J, Herian U, Theilmann L, Bartenschlager R., Science 285(5424):110-3 (1999) and modified to introduce a luciferase reporter, as first described by Krieger et al (Krieger N, Lohmann V, and Bartenschlager R, J. Virol. 75(10):4614-4624 (2001)). cDNA encoding a humanized form of the Renilla luciferase gene and a linker sequence fused directly to the 3′-end of the luciferase gene were introduced into the replicon construct using an Asc1 restriction site located in core, directly upstream of the neomycin marker gene. The adaptive mutation at position 1179 (serine to isoleucine) was also introduced (Blight K J, Kolykhalov, A A, Rice, C M, Science 290(5498):1972-1974). A stable cell line constitutively expressing this HCV replicon construct was generated by first linearizing plasmid DNAs with ScaI. RNA transcripts were synthesized in vitro using the T7 MegaScript transcription kit (Ambion, Austin, Tex.) according to manufacturer's directions. In vitro transcripts of the cDNA were transfected into the human hepatoma cell line, HUH-7. […] Resulting cell lines were characterized for positive and negative strand RNA production and protein production over time. […]
(§1) HCV replicon luciferase assays were developed to monitor the inhibitory effects of compounds described in the disclosure on HCV genotypes 1a and 1b viral replication. HUH-7 cells, constitutively expressing the HCV replicon, were grown in Dulbecco's Modified Eagle Media (DMEM) (Gibco-BRL) containing 10% Fetal calf serum (FCS) (Sigma) and 1 mg/mL G418 (Gibco-BRL). Compounds were serially diluted 3 folds in DMSO for a twenty-point titration and subsequently transferred to sterile 384-well tissue-culture treated plates (Corning cat #3571). The plates were then seeded with 50 μL of cells at a density of 3.0×10^3 cells/well in DMEM containing 4% FCS (final DMSO concentration at 0.5%). After 3 days incubation at 37° C., cells were analyzed for Renilla Luciferase activity using the EnduRen as substrate (Promega cat #E6485). The EnduRen substrate was diluted in DMEM and then added to the plates to a final concentration of 7.5 μM. The plates were incubated for 2 hrs at 37° C. and then read immediately for 30 seconds with Viewlux Imager (PerkinElmer) using a luminescence program. To assess cytotoxicity of compounds, CC50 values were generated by multiplexing the EnduRen-containing plates with Cell Titer-Blue (Promega, cat #G8082). Cell-Titer Blue (3 μL) was added to each well and incubated for 8 hrs at 37° C. The fluorescence signal from each well was read, with an excitation wavelength at 525/10 nm and an emission wavelength of 598/10 nm, using the Viewlux Imager.
(§2) The EC50 values for compounds were calculated by using a four-parameter logistic equation: y=A+((B−A)/(1+((C/x)^D))), where A and B denotes minimal and maximal % inhibition, respectively, C is the EC50, D is the hill slope and x represents compound concentration.
A general note: Replicon systems follow genome replication, usually without infectious particles.

The test system of the next assay is HCV genotype 1a replicon. The assay can be described thus: HCV replicon luciferase reporter assay, genotype 1a (LE_1a). In kind it is cell-based. The conditions noted are these: Hepatitis C virus, 72 h, HUH-7 cells, genotype 1a H77 replicon, 3 days incubation, Renilla luciferase.
Description: An HCV replicon whole cell system was established as described by Lohmann V, Korner F, Koch J, Herian U, Theilmann L, Bartenschlager R., Science 285(5424):110-3 (1999) and modified to introduce a luciferase reporter, as first described by Krieger et al (Krieger N, Lohmann V, and Bartenschlager R, J. Virol. 75(10):4614-4624 (2001)). cDNA encoding a humanized form of the Renilla luciferase gene and a linker sequence fused directly to the 3′-end of the luciferase gene were introduced into the replicon construct using an Asc1 restriction site located in core, directly upstream of the neomycin marker gene. The adaptive mutation at position 1179 (serine to isoleucine) was also introduced (Blight K J, Kolykhalov, A A, Rice, C M, Science 290(5498):1972-1974). A stable cell line constitutively expressing this HCV replicon construct was generated by first linearizing plasmid DNAs with ScaI. RNA transcripts were synthesized in vitro using the T7 MegaScript transcription kit (Ambion, Austin, Tex.) according to manufacturer's directions. In vitro transcripts of the cDNA were transfected into the human hepatoma cell line, HUH-7. […] Resulting cell lines were characterized for positive and negative strand RNA production and protein production over time.
A stable HCV replicon luciferase reporter cell line representing the genotype 1a H77 strain (Yanagi M, Purcell R H, Emerson S U, et al. Transcripts from a single full-length cDNA clone of hepatitis C virus are infectious when directly transfected into the liver of a chimpanzee. Proc Natl Acad Sci USA 1997; 94(16):8738-8743) was generated as described previously for the genotype 1b(Con1) replicon luciferase cell line. The replicon construct was modified by introducing mutations were introduced into the genes encoding the NS3 helicase domain (proline replaced by leucine at position 1496) and NS5A (serine to isoleucine at position 2204) to improve replication in cell culture.
as §1, §2

As to `CC[C@@H]1C[C@H](C)CC/C=C\[C@@H]2C[C@@]2(C(=O)NS(=O)(=O)C2(C)CC2)NC(=O)[C@@H]2C[C@@H](Oc3nccc4c5c(ccc34)CCO5)CN2C(=O)[C@H]1NC(=O)OC(C)(C)C` [Compound 5493, tert-butyl((2R,6S,7R,9R,13aS,14aR,16aS,Z)-2-((2,3-dihydrofuro[2,3-f]isoquinolin-6-yl)oxy)-7-ethyl-9-methyl-14a-(((1-methylcyclopropyl)sulfonyl)carbamoyl)-5,16-dioxo-1,2,3,5,6,7,8,9,10,11,13a,14,14a,15,16,16a-hexadecahydrocyclopropa[e]pyrrolo[1,2-a][1,4]diazacyclopentadecin-6-yl)carbamate], the EC50 in the assay with HCV genotype 1b replicon (read-out: LE_1b (EC50, range)) was in the range of 5.01 to 35 nM; in the assay with HCV genotype 1a replicon (read-out: LE_1a (EC50, range)) it was 35 to 145 nM.

On to `COc1ccc2c(O[C@@H]3C[C@H]4C(=O)N[C@]5(C(=O)NS(=O)(=O)C6(C)CC6)C[C@H]5/C=C\CC[C@@H](C)C[C@@H](C)[C@H](NC(=O)OC(C)(C)C(F)(F)F)C(=O)N4C3)cc(-n3ccc(C(C)C)n3)nc2c1` [Compound 4299], for which the EC50 was 0.51 to 1 nM with HCV genotype 1b replicon (read-out: LE_1b (EC50, range)) and 0.51 to 1 nM with HCV genotype 1a replicon (read-out: LE_1a (EC50, range)).

As for `CC[C@@H]1C[C@H](C)CC/C=C\[C@@H]2C[C@@]2(C(=O)NS(=O)(=O)C2(C)CC2)NC(=O)[C@@H]2C[C@@H](Oc3ncc(C(=O)OC)c4cc(OC)ccc34)CN2C(=O)[C@H]1NC(=O)OC(C)(C)C(F)(F)F` [Compound 4287], the concentration giving a half-maximal response (EC50) in the assay on HCV genotype 1b replicon (read-out: LE_1b (EC50, range)) is 1.01 to 5 nM; with HCV genotype 1a replicon (read-out: LE_1a (EC50, range)), 1.01 to 5 nM.

Take `Cc1cn2c(n1)nc(O[C@@H]1C[C@H]3C(=O)N[C@]4(C(=O)NS(=O)(=O)C5(CF)CC5)C[C@H]4/C=C\CC[C@@H](C)C[C@@H](C)[C@H](NC(=O)OC(C)(C)C(F)(F)F)C(=O)N3C1)c1cc(Cl)ccc12` [Compound 6139]: the EC50 in the assay with HCV genotype 1b replicon (read-out: LE_1b (EC50, range)) was 1.01 to 5 nM; with HCV genotype 1a replicon (read-out: LE_1a (EC50, range)) it was 5.01 to 35 nM.

On to `CC[C@@H]1C[C@H](C)CC/C=C\[C@@H]2C[C@@]2(C(=O)NS(=O)(=O)C2(C)CC2)NC(=O)[C@@H]2C[C@@H](Oc3ncc(-c4nccs4)c4cc(OC)ccc34)CN2C(=O)[C@H]1NC(=O)OC(C)(C)C` [Compound 4255, tert-butyl((2R,6S,7R,9R,13aS,14aR,16aS,Z)-7-ethyl-2-((6-methoxy-4-(thiazol-2-yl)isoquinolin-1-yl)oxy)-9-methyl-14a-(((1-methylcyclopropyl)sulfonyl)carbamoyl)-5,16-dioxo-1,2,3,5,6,7,8,9,10,11,13a,14,14a,15,16,16a-hexadecahydrocyclopropa[e]pyrrolo[1,2-a][1,4]diazacyclopentadecin-6-yl)carbamate], for which the half-maximal effective concentration (EC50) with HCV genotype 1b replicon (read-out: LE_1b (EC50, range)) fell in the range of 0.51 to 1 nM; in the assay with HCV genotype 1a replicon (read-out: LE_1a (EC50, range)), 1.01 to 5 nM.

Regarding `C[C@@H]1CC/C=C\[C@@H]2C[C@@]2(C(=O)NS(=O)(=O)C2(C)CC2)NC(=O)[C@@H]2C[C@@H](Oc3nc4nccn4c4ccccc34)CN2C(=O)[C@@H](NC(=O)OC(C)(C)C)[C@H](C)C1` [Compound 6122, tert-butyl((2R,6S,7R,9R,13aS,14aR,16aS,Z)-2-(imidazo[1,2-a]quinazolin-5-yloxy)-7,9-dimethyl-14a-(((1-methylcyclopropyl)sulfonyl)carbamoyl)-5,16-dioxo-1,2,3,5,6,7,8,9,10,11,13a,14,14a,15,16,16a-hexadecahydrocyclopropa[e]pyrrolo[1,2-a][1,4]diazacyclopentadecin-6-yl)carbamate], the half-maximal effective concentration (EC50) in the assay with HCV genotype 1b replicon (read-out: LE_1b (EC50)) is 72.5 nM; in the assay with HCV genotype 1b replicon (read-out: LE_1b (EC50, range)), 35 to 145 nM; in the assay on HCV genotype 1a replicon (read-out: LE_1a (EC50)), 72 nM; with HCV genotype 1a replicon (read-out: LE_1a (EC50, range)), 35 to 145 nM.

For the compound `COc1ccc2c(O[C@@H]3C[C@H]4C(=O)N[C@]5(C(=O)NS(=O)(=O)C6(C)CC6)C[C@H]5/C=C\CC[C@@H](C)C[C@@H](C)[C@H](NC(=O)OC(C)(C)C(F)(F)F)C(=O)N4C3)cc(-n3ccc(C(F)(F)F)n3)nc2c1` [Compound 4301], the concentration giving a half-maximal response (EC50) in the assay on HCV genotype 1b replicon (read-out: LE_1b (EC50, range)) lay within 0.51 to 1 nM; with HCV genotype 1a replicon (read-out: LE_1a (EC50, range)), 0.51 to 1 nM.

As for `CC[C@@H]1C[C@H](C)CC/C=C\[C@@H]2C[C@@]2(C(=O)NS(=O)(=O)C2(C)CC2)NC(=O)[C@@H]2C[C@@H](Oc3cc(-n4ccc(C(C)C)n4)nc4cc(OC)ccc34)CN2C(=O)[C@H]1NC(=O)OC(C)(C)C(F)(F)F` [Compound 4358], the EC50 with HCV genotype 1b replicon (read-out: LE_1b (EC50, range)) lay within 1.01 to 5 nM; in the assay with HCV genotype 1a replicon (read-out: LE_1a (EC50, range)), 1.01 to 5 nM.

Consider `C[C@@H]1CC/C=C\[C@@H]2C[C@@]2(C(=O)NS(=O)(=O)C2(C)CC2)NC(=O)[C@@H]2C[C@@H](Oc3nc4nncn4c4ccccc34)CN2C(=O)[C@@H](NC(=O)OC(C)(C)C(F)(F)F)[C@H](C)C1` [Compound 6125], for which the EC50 in the assay on HCV genotype 1b replicon (read-out: LE_1b (EC50, range)) was in the range of 35 to 145 nM; with HCV genotype 1a replicon (read-out: LE_1a (EC50, range)) it was 35 to 145 nM.

Regarding `C[C@@H]1CC/C=C\[C@@H]2C[C@@]2(C(=O)NS(=O)(=O)C2(C)CC2)NC(=O)[C@@H]2C[C@@H](Oc3nc4nccn4c4ccc(Cl)cc34)CN2C(=O)[C@@H](NC(=O)OC(C)(C)C(F)(F)F)[C@H](C)C1` [Compound 6129], the EC50 in the assay with HCV genotype 1b replicon (read-out: LE_1b (EC50)) was 0.78 nM; in the assay with HCV genotype 1b replicon (read-out: LE_1b (EC50, range)), 0.51 to 1 nM; with HCV genotype 1a replicon (read-out: LE_1a (EC50)), 4.21 nM; in the assay with HCV genotype 1a replicon (read-out: LE_1a (EC50, range)) it was 1.01 to 5 nM.

For `CC[C@@H]1C[C@H](C)CC/C=C\[C@@H]2C[C@@]2(C(=O)NS(=O)(=O)C2CC2)NC(=O)[C@@H]2C[C@@H](Oc3ncc(-c4nc(C(C)(C)C)cs4)c4cc(OC)ccc34)CN2C(=O)[C@H]1NC(=O)OC(C)(C)C` [Compound 4280, tert-butyl((2R,6S,7R,9R,13aS,14aR,16aS,Z)-2-((4-(4-(tert-butyl)thiazol-2-yl)-6-methoxyisoquinolin-1-yl)oxy)-14a-((cyclopropylsulfonyl)carbamoyl)-7-ethyl-9-methyl-5,16-dioxo-1,2,3,5,6,7,8,9,10,11,13a,14,14a,15,16,16a-hexadecahydrocyclopropa[e]pyrrolo[1,2-a][1,4]diazacyclopentadecin-6-yl)carbamate], the concentration for a half-maximal effect (EC50) is 1.01 to 5 nM in the assay on HCV genotype 1b replicon (read-out: LE_1b (EC50, range)) and 5.01 to 35 nM with HCV genotype 1a replicon (read-out: LE_1a (EC50, range)).

Consider `Cc1cn2c(n1)nc(O[C@@H]1C[C@H]3C(=O)N[C@]4(C(=O)NS(=O)(=O)C5(C)CC5)C[C@H]4/C=C\CC[C@@H](C)C[C@@H](C)[C@H](NC(=O)OC(C)(C)C(C)(F)F)C(=O)N3C1)c1cc(Cl)ccc12` [Compound 6137], for which the EC50 was 0.51 to 1 nM with HCV genotype 1b replicon (read-out: LE_1b (EC50, range)) and 1.01 to 5 nM with HCV genotype 1a replicon (read-out: LE_1a (EC50, range)).

`CC[C@@H]1C[C@H](C)CC/C=C\[C@@H]2C[C@@]2(C(=O)NS(=O)(=O)C2(C)CC2)NC(=O)[C@@H]2C[C@@H](Oc3cc(-n4ccnc4)c4ccc(OC)cc4n3)CN2C(=O)[C@H]1NC(=O)OC(C)(C)C(F)(F)F` [Compound 4282]: the 50% effective concentration (EC50) in the assay with HCV genotype 1b replicon (read-out: LE_1b (EC50, range)) fell in the range of 1.01 to 5 nM; in the assay with HCV genotype 1a replicon (read-out: LE_1a (EC50, range)), 5.01 to 35 nM.
